This assay relates to Plasmodium falciparum. Kind of assay: GSK_TCMDC: Inhibition of Plasmodium falciparum 3D7 in whole erythrocytes, using parasite LDH activity as an index of growth. It counts as functional, organism-based. To be noted: Plasmodium falciparum, 3D7.
Regarding `Cc1cc(NC(=O)c2ccco2)ccc1OC1CCN(Cc2ccccc2)CC1`, the XC50 was found to be 531 nM.
As for `Cc1nc2ccc(-c3nc4cc(N)ccc4[nH]3)cc2[nH]1`, the XC50 is 233 nM.
Turning to `O=C(N[C@@H](Cc1ccccc1)[C@H](O)CNCCC(F)(F)F)c1cccc(OCC2CC2)c1`, the XC50 stood at 616 nM.
In turn, `COc1ccc(CCNc2ccnc3cc(Cl)ccc23)cc1OC` registered an XC50 of 891 nM.
`CC(C)Nc1nc(NCCc2c[nH]cn2)nc(NCc2ccc(Cl)c(Cl)c2)n1` showed an XC50 of 962 nM.
The compound `O=C(CCCCCNC(=O)c1ccc(O)c(-c2ccc(Cl)c(Cl)c2)c1)NCCN1CCOCC1` had an XC50 of 830 nM.
In turn, `CCOC(=O)CCCN1C(=O)CN=C(c2ccccc2)c2cc(Cl)ccc21` yielded an XC50 of 778 nM.
In the case of `Cc1c(CCc2cccc(F)c2F)[nH]c2ccccc2c1=O` it was 822 nM; in that of `Nc1nc(N)c2c(ccc3c2ccn3Cc2ccc(OCc3ccccc3)cc2)n1`, 933 nM.
In turn, `O=C(Nc1ccc(Cl)c(Cl)c1)N[C@H]1CCN(CCCCCNC(=O)C2CC2c2ccc(Cl)c(Cl)c2)C1` (some centres not stated) had an XC50 of 1030 nM.
In turn, `CC1(C)N=C(N)N=C(N)N1c1cc(Cl)c(Cl)cc1Cl` yielded an XC50 of 181 nM.
On to `CN(C)CCNC(=O)c1cccc(-c2cnc3ccc(NCc4ccc(Cl)c(Cl)c4)nn23)c1`, for which the XC50 came to 698 nM.
For `CC(C)CCN1CCC(Oc2ccc(NC(=O)c3ccco3)cc2Cl)CC1`, the XC50 came out at 676 nM.
Take `CCN1CCN(c2cc(C)c3cc(NC(=O)c4ccc(N(CC)CC)cc4)ccc3n2)CC1`: the XC50 came to 962 nM.
In the case of `Cc1cccn2c(=O)c3cc(C(=O)NC(C)c4ccccc4)c(=N)n(CCN4CCOCC4)c3nc12` (configuration not stated) it was 823 nM; in that of `COc1cc(C)ccc1S(=O)(=O)N1CCCCC(c2ccc(C(F)(F)F)cc2)=N1`, 775 nM.
`O=C(Nc1cccc(C(F)(F)F)c1)NC1CCN(c2ccnc3ccccc23)CC1` registered an XC50 of 988 nM.
With `Cc1ccccc1N1CCN(c2ccc(C(=O)Nc3ccccc3)cc2)CC1`, the XC50 came to 723 nM.
Take `CCOc1ccc(C(=O)Nc2cc(Br)c3c(c2)CNCC3)cc1Cl`: the XC50 stood at 1040 nM.
In the case of `O=C(NC1CC1)c1cnc(N2CCC(COc3cccc(F)c3)CC2)c(Cl)c1`, the XC50 was 1200 nM.
Take `COc1ccc(-c2ccc(CNC(=O)c3cccc(C#N)c3)c(F)c2)cc1CN1CCCN(C)CC1`: the XC50 was 804 nM.
Consider `O=C(c1ccc(Cl)cc1)C1CCN(CCCOc2ccc3c(c2)CCNCC3)CC1`, for which the XC50 was determined as 1150 nM.
Turning to `Cc1cccc2nc(-c3ccc(-c4ccc(NC(=O)C(C)CN5CCN(C)CC5)cc4)s3)[nH]c12` (configuration not stated), the XC50 came to 731 nM.
The compound `CCCCCCCCCCS(=O)(=O)N[C@H](COCc1cccc(Oc2ccccc2)c1)COP(=O)(O)OC` registered an XC50 of 1020 nM.
For the compound `CN1CC[C@@H](Oc2cc(C(=O)NCc3ccc(Cl)c(Cl)c3)ccc2C(F)(F)F)C1`, the XC50 is 1250 nM.
In the case of `Cc1noc(C)c1CN1CCCN(c2ccc3c(c2)CCN(Cc2ccc(-c4ncc[nH]4)cc2)CC3)CC1` it was 864 nM.
The same measure for `CC(=O)Nc1ccc(C(=O)NC2CCN(c3ccnc4cc(Cl)ccc34)CC2)cc1`: 357 nM; for `COc1ccc(Nc2nccc(-c3ccc4c(-c5ccsc5)cnc(N)c4c3)n2)cc1`: 236 nM.
`CCOC(=O)C1=C(C)NC2=C(C(=O)C(C(=O)OC)C(C)C2)C1c1cc(Br)c(OCC)c(OC)c1` (configuration not stated) showed an XC50 of 701 nM.
Take `COc1ccccc1C1CCN(C2CCC(NC(=O)c3ccc4[nH]c(-c5ccc(C)cc5)nc4c3)CC2)CC1` (configuration not stated): the XC50 turned out to be 308 nM.
`CC(C)Nc1nc(NCCc2c[nH]cn2)nc(Nc2ccc(Oc3ccccc3)cc2)n1` came in with an XC50 of 887 nM.
Turning to `Cc1nc2ccc3ccc(CNc4ccc(C(=O)N[C@@H](CCC(=O)O)C(=O)N[C@@H](Cc5cccs5)C(=O)O)c(F)c4)cc3c2c(=O)[nH]1`, the XC50 was 787 nM.
The compound `O=C(c1ccc(-c2ccc(Cl)cc2)o1)N1CCc2cc3nccc(N4CCN5CCC[C@H]5C4)c3cc21` showed an XC50 of 170 nM.
In turn, `COc1cc2ccccc2c(OC)c1CNCCCCCCNCc1c(OC)cc2ccccc2c1OC` had an XC50 of 988 nM.
For `CC(C)CC(C)NC(=O)C1Cc2c([nH]c3cc(Cl)ccc23)C2(CCN(CCc3ccccc3)CC2)N1` (configuration not stated), the XC50 came out at 815 nM.
The same measure for `CCCCCCN(CCCCCC)CC(O)c1cc(-c2ccc(Cl)cc2)nc2c(C)cc(C)cc12` (configuration not stated): 67.3 nM; for `CC(C)COc1cc(C(=O)Nc2cnc3ccccc3c2)ccc1[N+](=O)[O-]`: 776 nM.
In the case of `O=C(Nc1cccc(C(F)(F)F)c1)c1ccc(S(=O)(=O)NC2CCN(CC3CCCCC3)CC2)cc1` it was 1160 nM.
For the compound `CC(C)(CC1CCCCC1)NC(=O)[C@H](CC1CCCCC1)Nc1ccc(C#N)c2ccccc12`, the XC50 stood at 592 nM.
Turning to `O=C(Nc1ccc2c(c1)CCC2)c1nc(N2CCN(c3ccncc3)CC2)ccc1Cl`, the XC50 was found to be 1380 nM.
As for `N=C(N)NN=Cc1c2ccccc2c(Cl)c2ccc(Cl)cc12`, the XC50 was 225 nM.
Take `CN(c1ccc2c(c1)nc(NCc1ccccc1)n2C)c1ccnc(Nc2ccc(CS(C)(=O)=O)cc2)n1`: the XC50 was 841 nM.
As to `COc1ccc(NC(=O)/C=C/c2ccccc2Cl)cc1OCCN1CCC(Cc2cc3ccccc3[nH]2)CC1`, the XC50 came to 903 nM.
With `N#CCCN1CCN(Cc2ccc(-c3ccc(-c4nc5cc(F)ccc5[nH]4)s3)cc2)CC1`, the XC50 worked out at 659 nM.
`COc1ccccc1C1CCN(C2CCC(NC(=O)/C=C/c3cccc(Cl)c3)CC2)CC1` (configuration not stated) had an XC50 of 1030 nM.
In the case of `O=C(Nc1ccc(-c2nc3ccccc3[nH]2)cc1)c1ccc(Cl)c([N+](=O)[O-])c1`, the XC50 stood at 802 nM.
With `COc1ccc(C2CCN(CCN3CCC(NC(=O)c4cccc(-c5ccncc5)c4)CC3)CC2)c(OC)c1`, the XC50 came out at 797 nM.
The compound `Cc1ccn2c(N(Cc3ccccc3)C(=O)c3ccc(Cl)c(Cl)c3)c(-c3ccccc3)nc2c1` displayed an XC50 of 987 nM.
In turn, `CCOC(=O)NC1=NC(=N)N(OCc2ccc(Cl)c(Cl)c2)C(C)(C)N1` displayed an XC50 of 40.7 nM.
In turn, `Cc1ccc2[nH]c(-c3cc(-c4cccc(CCN5CCOCC5)c4)cnc3N)nc2c1` yielded an XC50 of 170 nM.
Consider `COc1cccc(C2(c3cccc(OC)c3)N=C(N)N(CCCc3ccccc3)C2=O)c1`, for which the XC50 is 260 nM.
`C=CCNC(CCCCC)c1ccc(OCCOc2ccc(C(CCCCC)NCC=C)cc2)cc1` (configuration not stated) displayed an XC50 of 567 nM.
The same measure for `C#CCNCc1ccc(-c2cccc(-c3nc4cccc(C)c4[nH]3)c2)cc1`: 818 nM; for `Cc1cccc2nc(-c3ccc(-c4ccc(CN5CCN(C6CCN(C)CC6)CC5)cc4)cc3)[nH]c12`: 100 nM; for `CNCCc1c(O)ccc2ccccc12`: 804 nM.
`Cc1c[nH]c(-c2cccc(C(=O)NC3CCC(CCN4CCc5ccc(C#N)cc5CC4)CC3)c2)n1` (configuration not stated) registered an XC50 of 301 nM.
`COc1cc2nc(N3CCC(CNC(=O)c4ccc(-c5ccc(-c6noc(C)n6)cc5)cc4)CC3)nc(N)c2cc1OC` had an XC50 of 139 nM.
In turn, `Cc1ncccc1-c1cccc2c(NC(=O)Nc3ccc4nccc(N5CCN(C)CC5)c4c3)cccc12` had an XC50 of 632 nM.
In turn, `O=C(Cc1cccc(O)c1)NCC(Cc1ccc(O)cc1)c1ccccc1` (configuration not stated) came in with an XC50 of 643 nM.
Regarding `O=C(NCCNc1ccnc(Nc2ccc(F)cc2)n1)c1cc2ccccc2s1`, the XC50 stood at 755 nM.
`Cc1c(C(=O)C2CC2CN2CCC(N3CCCC3)CC2)sc2ccccc12` (configuration not stated) registered an XC50 of 1400 nM.
In turn, `N#Cc1cncc(-c2nc3c(N4CCC(N5CCCC5)CC4)cccc3n2CCNCc2ccccc2)c1` registered an XC50 of 874 nM.
For the compound `O=C(Nc1ccc(N2CCNCC2)nc1)c1oc(-c2ccccc2)nc1C(F)(F)F`, the XC50 is 981 nM.
`COc1cc(C(=O)NC2CC(C)(C)N(C)C(C)(C)C2)ccc1-c1cc2cc(Cl)c(Cl)cc2[nH]1` showed an XC50 of 1140 nM.
The compound `N#Cc1ccccc1Sc1ccccc1C(=O)Nc1ccc2ccccc2n1` registered an XC50 of 507 nM.
The compound `CN(C)c1ccc(C=CC(=O)NC(=O)c2ccccc2O)cc1` displayed an XC50 of 227 nM.
Consider `Cc1cc(N[C@@H](Cc2ccccc2)C(=O)NCCOc2ccccc2)nc(NCCc2cccs2)n1`, for which the XC50 stood at 997 nM.
As to `COc1ccc(-n2cc(C(=O)c3cc(Br)ccc3O)cc(C#N)c2=O)cc1Cl`, the XC50 was determined as 791 nM.
`O=C1CCCN1CCCNCc1cccc(-c2ccc(-c3nc4cc(C(F)(F)F)ccc4[nH]3)cc2)c1` showed an XC50 of 300 nM.
Turning to `COC(=O)C1(NC(=O)c2ccc(-n3nc(C)c(-c4ccccc4)c3N)cc2)CCCC1`, the XC50 was found to be 370 nM.
Compound `Cn1c(/C=C/C(=O)NC2CCC(CCN3CCc4ccc(C#N)cc4CC3)CC2)cc2ccccc21` (configuration not stated) registered an XC50 of 733 nM.
In turn, `CN(C)CCCOc1cccc(CCNCc2cccc(Oc3ccc(Cl)cc3)c2)c1` came in with an XC50 of 1010 nM.
The same measure for `CCNC(=O)N[C@@H]1CN[C@@H](C#Cc2cc3c(Nc4ccc(OCc5cccc(F)c5)c(Cl)c4)ncnc3s2)C1`: 1010 nM.
The compound `CCNC(=O)Nc1ccc(-c2ccc(-c3nc4cccc(C)c4[nH]3)s2)cc1` displayed an XC50 of 1070 nM.
On to `COc1ccc2nccc([C@@H](O)CN3CCC(NCc4[nH]c5ccccc5c4F)CC3)c2c1`, for which the XC50 worked out at 247 nM.
`O=C(Nc1ccc2c(c1)OCO2)NC1CCN(c2ccnc(NCc3ccc(F)cc3)n2)CC1` displayed an XC50 of 943 nM.
The same measure for `CCN(CCCN1CCCCC1)c1cc(C)nc(Nc2cc(Cl)ccc2C)n1`: 633 nM; for `O=C(Nc1cccc(-c2cccc(-c3nc4ccccc4[nH]3)c2)c1)c1csnn1`: 921 nM.
Take `O=C(/C=C/c1ccc(Cl)c(Cl)c1)NCCCCCN1CCC(NC(=O)NC2CCCCC2)CC1`: the XC50 was 557 nM.
In turn, `COc1cc2nccc(Nc3ccc(OCc4ccccc4)cc3)c2cc1OC` showed an XC50 of 203 nM.
The same measure for `CN(C)CCCNCc1ccc(-c2ccc(C(F)(F)F)cc2)cc1`: 873 nM; for `O=C(Nc1cccc(-c2ccc(-c3nc4cc(F)ccc4[nH]3)cc2)c1)c1ccncc1`: 278 nM.
`COc1ccc(-n2nc(C)c3c2NC(=O)CC3c2ccccc2OCc2ccc(F)cc2)cc1` (configuration not stated) registered an XC50 of 855 nM.
`COc1cc(OCCCCCCON2C(=N)N=C(N)NC2(C)C)cc(OC)c1OC`: the XC50 was found to be 3.2 nM.
In the case of `O=c1[nH]ccc2nc(N[C@@H]3CCNC3)nc(Nc3ccc4c(c3)S(=O)(=O)CC4)c12` it was 377 nM; in that of `CCCCCC1c2[nH]c3ccccc3c2CCN1C(=O)OCc1ccccc1` (configuration not stated), 389 nM; in that of `Cc1cc(F)ccc1Nc1nc(N(C)c2ccccc2)c2cc(OCCN(C)C)ccc2n1`, 786 nM.

For the origin of these results see ChEMBL document CHEMBL1157539, “Thousands of chemical starting points for antimalarial lead identification” (Nature, 2010).
